Where a name gives a salt, the structure may show the parent alone.
Target: T1, Lp-PLA2 from plasma (pooled human plasma) (Homo sapiens, UniProt Q13093)
T1 construct: from tissue; host or cells: pooled human plasma
T1 sequence (Q13093 22-441): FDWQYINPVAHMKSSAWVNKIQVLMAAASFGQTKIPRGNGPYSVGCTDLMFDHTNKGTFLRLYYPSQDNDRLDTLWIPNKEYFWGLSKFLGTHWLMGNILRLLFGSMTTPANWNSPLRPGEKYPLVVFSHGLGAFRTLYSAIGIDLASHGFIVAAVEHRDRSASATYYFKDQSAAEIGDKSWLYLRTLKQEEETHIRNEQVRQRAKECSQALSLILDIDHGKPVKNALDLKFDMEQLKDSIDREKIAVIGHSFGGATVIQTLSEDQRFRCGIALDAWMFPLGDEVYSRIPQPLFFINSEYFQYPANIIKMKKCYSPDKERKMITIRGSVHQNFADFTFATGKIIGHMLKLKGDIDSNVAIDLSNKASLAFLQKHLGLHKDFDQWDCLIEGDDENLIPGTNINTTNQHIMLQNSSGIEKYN
Assay: Lp-PLA2 human plasma assay (Thio-PAF assay)
Type: biochemical
Conditions: read-out: pIC50 in the thio-PAF assay (converted)
Text: (3) Lipoprotein-Associated Phospholipase A2 (Lp-PLA2) Human Plasma Assay (Also Referred to as “Thio-PAF Assay”)
The human plasma assay utilizes a thioester analog of PAF (phosphatidylcholine), where hydrolysis yields to the formation of a phospholipid containing a free thiol group. The amount of thiol is quantitated continuously by reacting with CPM (7-diethylamino-3-(4′-maleimidylphenyl)-4-methylcoumarin), a maleimide which increases in fluorescence after Michael addition of thiols. This assay may detect the activity of Lp-PLA2 from plasma, as determined by specific inhibition by Lp-PLA2 inhibitors.
The thio-PAF assay was run as a quenched 15 μL assay. Compounds source plate was prepared by making 1:3 (by volume) serial dilution of the compounds into pure DMSO on 384-well microplate. 0.01 μL of compounds on compound source plate were transferred to 384 well Greiner 784076 (black) low-volume plates by ECHO liquid dispenser. 8 μL pooled human plasma, which was previously aliquoted and frozen, was added. Plates were centrifuged for 10 sec at 500 rpm. After 30 minutes preincubation, 2 μL of substrate (2.5 mM thio-PAF, 3.2 mM NEM (N-ethylmaleimide) [made fresh daily in DMSO], and 32 μM CPM [from a DMSO stock] in assay buffer of 50 mM HEPES, pH7.4, 150 mM NaCl, 1 mM CHAPS was added to 384 well Greiner 784076 (black) low-volume plates by BRAVO liquid handling station. Plates were centrifuged for 10 sec at 500 rpm. Plate was covered to protect from light and incubated for 2 min at room temperature. Reaction was quenched with 5 μL of 5% aqueous trifluoroacetic acid (TFA). Plates were covered to protect from light and incubated for 40 min at room temperature. Plates were read at ex: 380/em: 485 using-Envision microplate reader. PIC50 data, curve and QC analysis was conducted by using XLFit module in Excel.
All exemplified compounds of the present invention were tested in thio-PAF assay or similar assay as described above.

SMILES | IC50 [µM]
O=c1nc(OCCc2ccc(Oc3ccc(Cl)c(C(F)(F)F)c3)cc2)[nH]cc1Cc1c(O)cc(F)cc1F [E19, 2-{[2-(4-{[4-Chloro-3-(trifluoromethyl)phenyl]oxy}phenyl)ethyl]oxy}-5-[(2,4-difluoro-6-hydroxyphenyl)methyl]-4(1H)-pyrimidinone] | > 10
CCc1c[nH]c(OCCc2ccc(Oc3ccc(Cl)c(C(F)(F)F)c3)cc2)nc1=O [E27, 2-{[2-(4-{[4-Chloro-3-(trifluoromethyl)phenyl]oxy}phenyl)ethyl]oxy}-5-ethyl-4(1H)-pyrimidinone] | > 10
Cn1cc(Cc2c[nH]c(CCc3ccc(Oc4cccc(C(F)(F)F)c4)cc3)nc2=O)cn1 [E50, 5-((1-methyl-1H-pyrazol-4-yl)methyl)-2-(4-(3-(trifluoromethyl)phenoxy)phenethyl)pyrimidin-4(1H)-one] | > 10
COc1ncc(Cc2c[nH]c(SCc3ccc(Oc4ccc(F)cc4)cc3)nc2=O)cn1 [E52, 2-((4-(4-fluorophenoxy)benzyl)thio)-5-((2-methoxypyrimidin-5-yl)methyl)pyrimidin-4(1H)-one] | > 10
CCc1c[nH]c(SCc2ccc(Oc3ccc(Cl)c(C(F)(F)F)c3)cc2)nc1=O [E63, 2-{[(4-{[4-chloro-3-(trifluoromethyl)phenyl]oxy}phenyl)methyl]thio}-5-ethyl-4(1H)-pyrimidinone] | > 10
COc1ncc(Cc2c[nH]c(SCc3ccc(Oc4ccc(F)c(C(F)(F)F)c4)c(C#N)c3)nc2=O)cn1 [E89, 2-{[4-fluoro-3-(trifluoromethyl)phenyl]oxy}-5-{[(5-{[2-(methyloxy)-5-pyrimidinyl]methyl}-4-oxo-1,4-dihydro-2-pyrimidinyl)thio]methyl}benzonitrile] | > 10
N#Cc1ccc(Cc2c[nH]c(SCCc3ccc(Oc4ccc(Cl)c(C(F)(F)F)c4)cc3)nc2=O)cc1 [E114, 4-[(2-{[2-(4-{[4-chloro-3-(trifluoromethyl)phenyl]oxy}phenyl)ethyl]thio}-4-oxo-1,4-dihydro-5-pyrimidinyl)methyl]benzonitrile] | > 10
O=C(O)Cc1c[nH]c(OCCc2ccc(Oc3ccc(Cl)c(C(F)(F)F)c3)cc2)nc1=O [E131, (2-{[2-(4-{[4-chloro-3-(trifluoromethyl)phenyl]oxy}phenyl)ethyl]oxy}-4-oxo-1,4-dihydro-5-pyrimidinyl)acetic acid] | > 10
CCc1c[nH]c(OCCc2ccc(Oc3ccc(C(F)(F)F)nc3)cc2)nc1=O [E140, 5-ethyl-2-{[2-(4-{[6-(trifluoromethyl)-3-pyridinyl]oxy}phenyl)ethyl]oxy}-4(1H)-pyrimidinone] | > 10
CCc1cn(C)c(OCCc2ccc(Oc3ccc(C(F)(F)F)nc3)cc2)nc1=O [E142, 5-ethyl-1-methyl-2-{[2-(4-{[6-(trifluoromethyl)-3-pyridinyl]oxy}phenyl)ethyl]oxy}-4(1H)-pyrimidinone] | > 10
CCc1cn(C)c(OCCc2ccc(Oc3cnc(C(F)(F)F)nc3)cc2)nc1=O [E144, 5-ethyl-1-methyl-2-(4-((2-(trifluoromethyl)pyrimidin-5-yl)oxy)phenethoxy)pyrimidin-4(1H)-one, trifluoroacetic acid salt] | > 10
COc1ncc(Cc2c[nH]c(OCCc3ccc(Oc4ncc(Cl)cn4)cc3)nc2=O)cn1 [E145, 2-(4-((5-chloropyrimidin-2-yl)oxy)phenethoxy)-5-((2-methoxypyrimidin-5-yl)methyl)pyrimidin-4(1H)-one, Trifluoroacetic acid salt] | > 10
Cc1cccc(Oc2ccc(CCOc3nc(=O)c(Cc4cnn(C)c4)c[nH]3)cc2)n1 [E158, 5-[(1-methyl-1H-pyrazol-4-yl)methyl]-2-[(2-{4-[(6-methyl-2-pyridinyl)oxy]phenyl}ethyl)oxy]-4(1H)-pyrimidinone] | > 10
CCc1c[nH]c(OCCc2ccc(Oc3cccc(C)n3)cc2)nc1=O [E160, 5-ethyl-2-[(2-{4-[(6-methyl-2-pyridinyl)oxy]phenyl}ethyl)oxy]-4(1H)-pyrimidinone] | > 10
CCc1c[nH]c(OCCc2cc(F)c(Oc3cnc(C(F)(F)F)nc3)c(F)c2)nc1=O [E170, 2-(3,5-difluoro-4-((2-(trifluoromethyl)pyrimidin-5-yl)oxy)phenethoxy)-5-ethylpyrimidin-4(1H)-one] | > 10
CCc1cn(C)c(OCCc2cc(F)c(Oc3cnc(C(F)(F)F)nc3)c(F)c2)nc1=O [E171, 2-(3,5-difluoro-4-((2-(trifluoromethyl)pyrimidin-5-yl)oxy)phenethoxy)-5-ethyl-1-methylpyrimidin-4(1H)-one] | > 10
CCc1c[nH]c(OCCc2ccc(Oc3ccc(Cl)c(C(F)(F)F)c3)c(F)c2)nc1=O [E173, 2-{[2-(4-{[4-chloro-3-(trifluoromethyl)phenyl]oxy}-3-fluorophenyl)ethyl]oxy}-5-ethyl-4(1H)-pyrimidinone] | > 10
CCc1c[nH]c(OCCc2ccc(Oc3ccc(Cl)c(OC(F)(F)F)c3)cc2)nc1=O [E179] | > 10
CCc1c[nH]c(OCCc2ccc(Oc3ccc(Cl)c(C)c3)cc2)nc1=O [E183, 2-[(2-{4-[(4-chloro-3-methylphenyl)oxy]phenyl}ethyl)oxy]-5-ethyl-4(1H)-pyrimidinone] | > 10
CN(CCc1ccc(Oc2ccc(F)cc2)cc1)c1nc(=O)c(Cc2cncnc2)c[nH]1 [E192, 2-{2-[4-(4-fluoro-phenoxy)phenyl]-ethyl-methyl-amino}-5-pyrimidin-5-ylmethyl-1H-pyrimidin-4-one] | > 10
Cc1c[nH]c(NCCc2ccc(Oc3ccc(Cl)c(C(F)(F)F)c3)cc2)nc1=O [E198, 2-{2-[4-(4-Chloro-3-trifluoromethyl-phenoxy)-phenyl]-ethylamino}-5-methyl-1H-pyrimidin-4-one] | > 10

More lines, now with the values ahead:

IC50 [µM] | SMILES
> 10 | O=c1nc(CCc2ccc(Oc3ccc(F)cc3)cc2)[nH]cc1Cc1cncnc1 [E39, 2-(4-(4-fluorophenoxy)phenethyl)-5-(pyrimidin-5-ylmethyl)pyrimidin-4(1H)-one]
> 10 | N#Cc1ccc(Cc2c[nH]c(SCc3ccc(Oc4ccc(Cl)c(C(F)(F)F)c4)cc3)nc2=O)cc1 [E62, 4-[(2-{[(4-{[4-chloro-3-(trifluoromethyl)phenyl]oxy}phenyl)methyl]thio}-4-oxo-1,4-dihydro-5-pyrimidinyl)methyl]benzonitrile]
> 10 | Cn1cc(Cc2c[nH]c(SCc3ccc(Oc4ccc(Cl)c(C(F)(F)F)c4)c(C#N)c3)nc2=O)c2ccccc21 [E81, 2-(4-chloro-3-(trifluoromethyl)phenoxy)-5-(((5-((1-methyl-1H-indol-3-yl)methyl)-4-oxo-1,4-dihydropyrimidin-2-yl)thio)methyl)benzonitrile]
> 10 | CCc1c[nH]c(SCc2ccc(Oc3ccc(Cl)c(C(F)(F)F)c3)c(C#N)c2)nc1=O [E83, 2-{[4-chloro-3-(trifluoromethyl)phenyl]oxy}-5-{[(5-ethyl-4-oxo-1,4-dihydro-2-pyrimidinyl)thio]methyl}benzonitrile]
> 10 | CCc1c[nH]c(SCc2ccc(Oc3cccc(C(F)(F)F)c3)c(C#N)c2)nc1=O [E98, 5-{[(5-ethyl-4-oxo-1,4-dihydro-2-pyrimidinyl)thio]methyl}-2-{[3-(trifluoromethyl)phenyl]oxy}benzonitrile]
> 10 | CCc1c[nH]c(OCCc2cc(F)c(Oc3ccc(Cl)c(C(F)(F)F)c3)c(F)c2)nc1=O [E125, 2-{[2-(4-{[4-chloro-3-(trifluoromethyl)phenyl]oxy}-3,5-difluorophenyl)ethyl]oxy}-5-ethyl-4(1H)-pyrimidinone]
> 10 | CCc1c[nH]c(OCCc2ccc(Oc3cc(Cl)cc(C(F)(F)F)c3)cc2)nc1=O [E163, 2-{[2-(4-{[3-chloro-5-(trifluoromethyl)phenyl]oxy}phenyl)ethyl]oxy}-5-ethyl-4(1H)-pyrimidinone]
> 10 | CCc1cn(C)c(OCCc2ccc(Oc3ccc(Cl)c(C)c3)cc2)nc1=O [E184, 2-[(2-{4-[(4-chloro-3-methylphenyl)oxy]phenyl}ethyl)oxy]-5-ethyl-1-methyl-4(1H)-pyrimidinone]
> 10 | O=c1nc(NCCc2ccc(Oc3ccc(Cl)c(C(F)(F)F)c3)cc2)[nH]cc1CN1CCCC1 [E215, 2-{2-[4-(4-chloro-3-trifluoromethyl-phenoxy)-phenyl]-ethylamino}-5-pyrrolidin-1-ylmethyl-1H-pyrimidin-4-one]

Source: patent publication US9174968B2, “Pyrimidinone compounds for use in the treatment of diseases or conditions mediated by LP-PLA2” (GLAXO GROUP LIMITED, priority 2010, dated 2015)
